Assay results from ChEMBL document CHEMBL3414509, “A FRET-based assay for screening SIRT6 modulators” (Eur J Med Chem, 2015).
Calls of active or inactive are those of the source. The calls are words filed in the database; no cut-off is given here. Peptide text beside a SMILES is read from it. * marks the point of attachment. X1 = CN(C)c1ccc(/N=N/c2ccc(C(=O)*)cc2)cc1; EDANS = O=S(=O)(O)c1cccc2c(NCCN*)cccc12; Myristoyl = CCCCCCCCCCCCCC(=O)*

Key:
[1] = target: NAD-dependent protein deacylase sirtuin-6 (Homo sapiens) (UniProt Q8N6T7); experiment: Inhibition of SIRT6 (unknown origin) at 300 uM using (DABCYL)ISGASE(MyK)DIVHSE(EDANS)G substrate in presence of NAD followed by 1 hr incubation with trypsin by FRET assay
[2] = target: T1, NAD-dependent protein deacetylase sirtuin-1 (Homo sapiens) (UniProt Q96EB6); experiment: Inhibition of SIRT1 (unknown origin) at 300 uM using (DABCYL)ISGASE(AcK)DIVHSE(EDANS)G substrate in presence of NAD followed by 1 hr incubation with trypsin by FRET assay
T1 sequence (whole entry): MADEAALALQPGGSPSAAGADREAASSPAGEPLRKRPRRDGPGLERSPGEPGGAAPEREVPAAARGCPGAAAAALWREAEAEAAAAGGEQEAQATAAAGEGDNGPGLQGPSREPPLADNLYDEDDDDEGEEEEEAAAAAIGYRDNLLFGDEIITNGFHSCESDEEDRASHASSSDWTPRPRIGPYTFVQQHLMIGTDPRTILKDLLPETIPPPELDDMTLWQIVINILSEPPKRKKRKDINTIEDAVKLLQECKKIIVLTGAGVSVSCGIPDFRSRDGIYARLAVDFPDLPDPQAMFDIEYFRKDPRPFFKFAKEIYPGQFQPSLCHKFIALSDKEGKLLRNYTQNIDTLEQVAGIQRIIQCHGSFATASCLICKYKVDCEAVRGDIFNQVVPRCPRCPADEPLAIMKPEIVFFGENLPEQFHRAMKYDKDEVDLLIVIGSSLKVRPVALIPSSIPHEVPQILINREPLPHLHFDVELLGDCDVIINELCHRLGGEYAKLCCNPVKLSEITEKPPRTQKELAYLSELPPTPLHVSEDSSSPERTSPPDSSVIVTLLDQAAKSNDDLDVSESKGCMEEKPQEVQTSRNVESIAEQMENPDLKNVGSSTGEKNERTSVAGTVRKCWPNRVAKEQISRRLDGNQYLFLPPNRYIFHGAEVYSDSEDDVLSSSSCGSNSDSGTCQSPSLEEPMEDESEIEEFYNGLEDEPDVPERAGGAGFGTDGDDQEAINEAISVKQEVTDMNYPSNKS

Trypsin (Homo sapiens) = Trypsin (Homo sapiens) (UniProt P07477+P07478+P35030); experiment: Activity of trypsin (unknown origin) assessed as enzyme-mediated compound hydrolysis by measuring increase in fluorescence at 10 uM incubated for 1 hr at 37 degC relative to control; format: protein assay
[3] = target: NAD-dependent protein deacylase sirtuin-6 (Homo sapiens) (UniProt Q8N6T7); experiment: Activity of SIRT6 (unknown origin) assessed as enzyme-mediated compound hydrolysis at 10 uM incubated for 60 mins in presence of NAD followed by 1 hr incubation with trypsin

NAD-dependent protein deacylase sirtuin-6 (Homo sapiens), sequence (Q8N6T7 whole entry): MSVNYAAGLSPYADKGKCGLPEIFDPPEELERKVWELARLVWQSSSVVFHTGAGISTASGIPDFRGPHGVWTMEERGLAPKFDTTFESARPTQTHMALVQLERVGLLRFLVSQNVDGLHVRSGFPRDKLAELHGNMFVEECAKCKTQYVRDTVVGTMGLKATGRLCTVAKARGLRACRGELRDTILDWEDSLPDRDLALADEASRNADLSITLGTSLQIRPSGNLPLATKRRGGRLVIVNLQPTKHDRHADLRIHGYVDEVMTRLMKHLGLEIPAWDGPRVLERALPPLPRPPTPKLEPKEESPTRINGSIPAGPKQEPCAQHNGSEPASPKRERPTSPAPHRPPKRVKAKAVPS

## N#C/C(=C\c1ccc(-c2cc(Cl)ccc2Cl)o1)C(=O)Nc1cccc2ncccc12
[1]
  inhibition: < 50%

## CC(NC(=O)c1ccccc1/N=C/c1c(O)ccc2ccccc12)c1ccccc1 (configuration not stated)
[1]
  inhibition: < 50%

## NC(=O)c1cccnc1
[1]
  inhibition: > 50%
[2]
  inhibition: Active

## CC[C@H](C)[C@H](NC(=O)c1ccc(/N=N/c2ccc(N(C)C)cc2)cc1)C(=O)N[C@@H](CO)C(=O)NCC(=O)N[C@@H](C)C(=O)N[C@@H](CO)C(=O)N[C@@H](CCC(=O)O)C(=O)N[C@@H](CCCCN)C(=O)N[C@@H](CC(=O)O)C(=O)N[C@H](C(=O)N[C@H](C(=O)N[C@@H](Cc1cnc[nH]1)C(=O)N[C@@H](CO)C(=O)N[C@@H](CCC(=O)NCCNc1cccc2c(S(=O)(=O)O)cccc12)C(=O)NCC(=O)O)C(C)C)[C@@H](C)CC (HELM PEPTIDE1{[CN(C)c1ccc(/N=N/c2ccc(C(=O)[*:2])cc2)cc1].I.S.G.A.S.E.K.D.I.V.H.S.E.G}|CHEM1{[O=S(=O)(O)c1cccc2c(NCCN[*:1])cccc12]}$PEPTIDE1,CHEM1,14:R3-1:R1$$$V2.0)
Trypsin (Homo sapiens)
  fold change (FC): 15

## O=C1CCc2c(ccc3ccccc23)O1
[1]
  inhibition: < 50%

## CCCCCCCCCCCCCC(=O)NCCCC[C@H](NC(=O)[C@H](CCC(=O)O)NC(=O)[C@H](CO)NC(=O)[C@H](C)NC(=O)CNC(=O)[C@H](CO)NC(=O)[C@@H](NC(=O)c1ccc(/N=N/c2ccc(N(C)C)cc2)cc1)[C@@H](C)CC)C(=O)N[C@@H](CC(=O)O)C(=O)N[C@H](C(=O)N[C@H](C(=O)N[C@@H](Cc1cnc[nH]1)C(=O)N[C@@H](CO)C(=O)N[C@@H](CCC(=O)NCCNc1cccc2c(S(=O)(=O)O)cccc12)C(=O)NCC(=O)O)C(C)C)[C@@H](C)CC (X1-ISGASEK(Myristoyl)DIVHSE(EDANS)G-OH)
[3]
  fold change (FC): 10
